Data taken from patent US20020040062A1, “Protein kinase C activators and their use in decreasing expression of cell antigens” (The Trustees of Columbia University, priority 1993, published 2002).
Marks after values point to notes of the source that are not given here.

Tested on: HLA-DR
Experiment: FACS analysis of HLA-DR (MoAb L243) in WiDr human colon carcinoma cells
Assay type: cell-based
Protocol: Cells were plated in 10 cm plates, media was changed 24 hours later with no addition (control) or addition of the indicated compounds and cells were incubated at 37° C. for the indicated time (72 or 96 hours). Cells were resuspended using 10× EDTA and antigen expression was determined as described (Leon, Mesa-Tejada, Gutierrez, Estabrook, Greiner, Schlom & Fisher: Anticancer Res. 9:1639-1648, 1989; Leon, Gutierrez, Jiang, Estabrook, Waxman & Fisher: Cancer Immunol. Immmunother. 35:315-324, 1992).

[1] = 72 Hour Treatment, MEZ 100 ng/ml, IFN-γ 100 U/ml
[2] = 96 Hour Treatment, MEZ 100 ng/ml, IFN-γ 100 U/ml

Q: For `C=C(C)[C@@]12O[C@@]3(c4ccccc4)O[C@@H]1[C@@H]1[C@@H]4O[C@]4(CO)[C@@H](O)[C@]4(O)C(=O)C(C)=C[C@H]4[C@@]1(O3)[C@H](C)[C@H]2OC(=O)/C=C/C=C/c1ccccc1` [MEZ, mezerein], which “Monoclonal Antibody Binding (MFI) MoAb L243 (HLA-DR)” value (“Monoclonal Antibody Binding” below) [1] is on record?
A: 1120* MFI

Q: And the “Monoclonal Antibody Binding” value [2]?
A: 2129* MFI

Q: What does the source list for `CCCCCCCCCCN(C)c1cc(CO)cc(NC(C)=O)c1` [ADMB, 3-(N-acetylamino)-5-(N-decyl-N-methylamino)-benzyl alcohol]?
A: Monoclonal Antibody Binding (MFI) MoAb L243 (HLA-DR) (72 Hour Treatment, ADMB 0.01 μg/ml): 390 MFI; Monoclonal Antibody Binding (MFI) MoAb L243 (HLA-DR) (72 Hour Treatment, ADMB 0.1 μg/ml): 317 MFI; Monoclonal Antibody Binding (MFI) MoAb L243 (HLA-DR) (72 Hour Treatment, ADMB 1.0 μg/ml): 486* MFI; Monoclonal Antibody Binding (MFI) MoAb L243 (HLA-DR) (96 Hour Treatment, ADMB 0.01 μg/ml): 434 MFI; Monoclonal Antibody Binding (MFI) MoAb L243 (HLA-DR) (96 Hour Treatment, ADMB 0.1 μg/ml): 615* MFI; Monoclonal Antibody Binding (MFI) MoAb L243 (HLA-DR) (96 Hour Treatment, ADMB 1.0 μg/ml): 806* MFI

B1: IFN-γ: recombinant human immune interferon produced in Escherichia coli (protein, UniProt P01579 24-161, looked up)
Interferon gamma: QDPYVKEAENLKKYFNAGHSDVADNGTLFLGILKNWKEESDRKIMQSQIVSFYFKLFKNFKDDQSIQKSVETIKEDMNVKFFNSNKKKRDDFEKLTNYSVTDLNVQRKAIHELIQVMAELSPAAKTGKRKRSQMLFRG
Q: For B1, which “activity in increasing Class II HLA-DR antigens relative to ADMB” value is on record?
A: approximately 3 ×

Q: What about the “Monoclonal Antibody Binding” value [1] of the same molecule?
A: 1724* MFI

Q: And the “Monoclonal Antibody Binding” value [2]?
A: 2376* MFI
